Patent US6696303B2, “Identifying substances using cells that express p75NTR” (Trustees of Boston University, priority 1996, dated 2004)

Assays:
Bax = Bax level in melanocytes by Western blot with anti-Bax antibody; format: cell-based, human; settings: for increased Bax level as compared to the 40-1 peptide: 25 μM, four days; for Bax induction: 25 uM, within 4 days, vs 40-1 control fragment or irrelevant protein
Experimental: To investigate the mechanism of β-amyloid-mediated melanocyte death, Bax levels in melanocytes treated with 25 uM of 1-40 or 25-35 β-amyloid peptides was examined. Within 4 days of treatment, Bax was induced 3 fold in melanocytes stimulated either with the β-amyloid 1-40 or 25-35 fragments as compared to melanocytes treated with the 40-1 control fragment or an irrelevant HPLC purified protein of similar size.
Melanocytes were maintained as above. Four days after addition of 25 μM of β-amyloid fragments 1-40, 40-1 or 25-35; or 25 μM of HPLC-purified bovine corticotropin releasing factor (CRF) (Bachem Calif.) (MW 4.7 kD) as an additional negative control, cells were extracted in RIPA buffer (50 mM Tris-HCl, 0.15 M NaCl, 0.5% sodium deoxycholate, 1% TRITON®X-100) in the presence of 1 μ/ml aprotinin and 75 μg/ml phenylmethylsulfonyl fluoride (PMSF), sonicated for 1-3 seconds and centrifuged. 40 μg of protein per lane were separated on 12% SDS/PAGE and blotted onto nitrocellulose paper (overnight, 25V). To verify equal loading a duplicate 13% SDS/PAGE was performed and stained with Coomasie Blue R250 stain. Blots were incubated with anti-Bax antibody (1:1000 dilution) (primary antibody), followed by horseradish peroxidase-conjugated goat anti-rabbit IgG (secondary antibody) (1:500 dilution) (Bio-Rad Laboratories, Hercules, Calif.). Bound antibodies were detected using enhanced chemiluminescence kit (Amersham Corp.). Autoradiograms were scanned into a Macintosh II is computer using the Of to TM program (Light source Computer Images, Inc.). Scan analysis was performed with manual definition of bands using Scan Analysis TM 68000 program (Biosoft, Cambridge, UK).

p75^NTR [1] = experiment: UV irradiated melanocytes treated with anti p75NTR antisense oligonucleotides; format: cell-based
Experimental: Melanocytes were UV irradiated with 25 mJ/cm^2 and then supplemented either with 10 μM anti p75^NTR anti sense phosphothioate oligonucleotides ([…] SEQ ID NO.: 5) directed against the 3′ end of the p75^NTR coding region, or the same concentration of sense oligonucleotides as a negative control.
Immunohistochemical analysis confirmed that p75^NTR was not expressed in cells treated with anti-p75^NTR anti-sense oligonucleotides, but was expressed in the sense treated cells. Within 24 hours after irradiation; the following was observed the following were observed: […]

melanocytes = experiment: NGF supplementation of β-amyloid-treated melanocytes; format: cell-based, human; settings: for percent of live cells (spread): 48 hours
Experimental: Melanocytes were maintained as above in hormone supplemented medium lacking hydrocortisone. Cells were supplemented with 25 μM of β-amyloid 1-40 in the presence of 50 ng/ml NGS or diluent.
Photographs of representative fields were obtained and the percent of the live cells (spread) was determined 48 hours after addition of β-amyloid and NFG or β-amyloid and diluent.
At least 400 cells were counted in each condition.

normal human melanocytes = experiment: melanocyte cell yield and morphology after β-amyloid supplementation; format: cell-based
Experimental: To determine the effect of β-amyloid on normal human melanocytes, cultures were supplemented with increasing concentrations (0.025-50 uM) of HPLC-purified β-amyloid fragment corresponding to amino acids 1-40. A peptide containing the first 40 amino acids synthesized in reverse order (40-1) was used as a negative control.
Melanocytes were maintained in serum free Medium 199 (Gibco BRL Gaithersburg, Md.) supplemented with epidermal growth factor (10 ng/ml) (Collaborative Research), insulin (10 μg/ml) (Sigma), triiodothyronine (10^−9 M) (Collaborative Research), transferrin (10 μg/ml) (Sigma), hydrocortisone (1.4×10^−6 M) (Calbiochem), cholera toxin (10^−9 M) (Calbiochem) and basic fibroblast growth factor (basic FGF) (10 ng/ml) (Collaborative Research). Two days after plating cells were supplemented with increasing concentrations of β-amyloid 1-40 or the control peptide 40-1 (0-50 μM) (Bachem Calif., Torrance, Calif.).

p75^NTR 3T3 cells = experiment: cell yield of p75NTR 3T3 cells with β-amyloid and cyclic peptide; format: cell-based
Experimental: p75^NTR 3T3 cells were maintained in serum free medium supplemented with 200 nM β-amyloid 1-40, 200 nM cyclic peptide […], (SEQ ID NO: 4) 20 nM β-amyloid 1-40 and 200 nM cyclic peptide or diluent alone.

p75^NTR [2] = target: T1, p75^NTR (Homo sapiens, UniProt P08138); experiment: cross linking of 125I β-amyloid 1-40 and immunoprecipitation with anti p75NTR antibodies; format: binding; settings: p75NTR-NIH 3T3 cells, disuccinimidyl suberate cross linking
T1 construct: expressed in transfected cells; host or cells: NIH 3T3 fibroblasts, permanently transfected (p75NTR-NIH 3T3 cells)
T1 sequence (P08138 29-427): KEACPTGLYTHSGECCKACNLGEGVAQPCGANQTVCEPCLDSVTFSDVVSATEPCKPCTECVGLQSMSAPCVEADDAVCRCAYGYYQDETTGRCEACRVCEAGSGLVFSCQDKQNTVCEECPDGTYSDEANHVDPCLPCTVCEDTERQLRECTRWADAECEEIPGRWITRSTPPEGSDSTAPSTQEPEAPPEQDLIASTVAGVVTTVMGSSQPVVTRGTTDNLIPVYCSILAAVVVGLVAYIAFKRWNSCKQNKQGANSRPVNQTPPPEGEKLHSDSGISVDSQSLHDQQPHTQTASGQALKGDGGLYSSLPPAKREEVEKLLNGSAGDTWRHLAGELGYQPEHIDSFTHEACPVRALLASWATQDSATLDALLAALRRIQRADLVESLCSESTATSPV
Experimental: p75^NTR-NIH 3T3 cells were maintain in DMEM supplemented with 10% FBS in the presence of penicillin (45 ng/ml), streptomycin (68 ng/ml), and hygromycin B (17.5 ng/ml). At 80% confluence cells were lifted from the dish with EDTA and incubated in suspension with 5 uCi ^125I labeled β-amyloid 1-40 at 4° C. for 1 hour in DMEM. After incubation, 1 mM of disuccinimidyl suberate was added for 30 minutes. Following centrifugation cells were lysed with RIPA buffer (50 mM Tris HCl, pH 8.0, 0.15 M NaCl 0.5% sodium deoxycholate 4, 5 mM MgC2, 1% TRITON®X-100, 1 mM phenylmethylsulfonylfluoride, and 1 μg/ml aprotinin), sonicated for 1-3 seconds and immunoprecipitated with anti p75^NTR antibodies (mouse monoclonal IgGl, Cedarlane Laboratories Ltd., Ontario, Canada) or mouse IgG as control for 16 hours at 4° C. in the presence of 15 ul of protein G plus protein A agarose and 1M NaCl adjusted to pH 8.0. After several washes with 20 mM Tris HCl, pH 8.0, 1M NaCl, 5mM MgCl2, 0.2% TRITON®X-100 and 1 mM PMSF, immunoprecipitates were separated over 8% PAGE and subjected to autoradiography. A band of appropriate molecular weight was present only in lysates immunoprecipitated with anti p75^NTR antibodies and not lysates immunoprecipitated with irrelevant mouse IgG.

p75^NTR [3] = target: T1, p75^NTR; experiment: receptor affinity for p75NTR; format: binding
p75^NTR [4] = target: T1, p75^NTR; experiment: competition for 125I labeled β-amyloid 1-40 binding on p75NTR-NIH 3T3 cells; settings: NGF 100 ng/ml; 2 hours at 4° C.
Source text: After rinsing in PBS, cells were lysed in 1N NaOH and equal amounts of protein from cell lysates were subject to counting.
[…] (SEQ ID NO: 4). Lysates from 1.5×10^5 cells were subjected to counting.

p75^NTR [5] = target: T1, p75^NTR; settings: lysine at position 34 replaced by alanine; vs NGF; cited from earlier work
[6] = ≧25 μM, compared to control cultures
[7] = NGF supplementation, preliminary data

## 25-35: β-amyloid peptide fragment of amino acid residues 25-35 (GSNKGAIIGLM)
Bax
  increased Bax level as compared to the 40-1 peptide: 160%
  Bax induction: 3 fold

## CTCCCACTCGTCATTCGAC (all phosphorothioate, sugars by position and methylation of C not given here) [anti-sense oligonucleotides, anti p75NTR anti sense phosphothioate oligonucleotides directed against the 3′ end of the p75NTR coding region]
p75^NTR [1]; 10 μM oligonucleotide, melanocytes UV irradiated with 25 mJ/cm^2
  p75NTR expression (immunohistochemical analysis): not expressed
p75^NTR [1]; diluent instead of NGF
  appearance of cells within 24 hours after irradiation: appear as healthy as cells provided NGF lacking p75^NTR
p75^NTR [1]; with 50 ng/ml NGF
  appearance of cells within 24 hours after irradiation: do not appear as healthy or numerous as cells expressing both receptors in the presence of NGF

## β-amyloid 1-40: HPLC-purified β-amyloid fragment corresponding to amino acids 1-40
Bax
  increased Bax level as compared to the 40-1 peptide: 270%
  Bax induction: 3 fold
Bax; [6]
  upregulation of Bax protein expression: approximately three fold
melanocytes; 25 μM β-amyloid 1-40 and diluent
  percent of live cells (spread): 77±8.5%
Normal human melanocytes; 0-50 μM, three to five days after addition
  effect on cell yield: dose dependent decrease of cell yield
Normal human melanocytes; 25-30 uM, compared to cell yield before β-amyloid addition (100%)
  decrease in cell yield: 59%±17%
Normal human melanocytes; low concentrations (≦1 μM)
  dendrite outgrowth: extensive outgrowth of dendrites
Normal human melanocytes; within 3-5 days, total of four experiments
  decrease of melanocyte yield: > 50%
Normal human melanocytes; [6]
  proportion of apoptotic cells: significantly increases the proportion of apoptotic cells
p75^NTR 3T3 cells; 200 nM, serum free medium, up to 120 hours
  cell yield compared to all other cultures: prominent decrease of cell yield
p75^NTR 3T3 cells; β-amyloid 200 nM
  reduction of cell yields: ~60%
p75^NTR [2]
  binding to p75NTR (autoradiogram of immunoprecipitates): protein band of 75-80 kD in size only in lysates immunoprecipitated with anti p75^NTR antibodies

## NGF: Nerve growth factor, physiologic ligand for p75NTR
melanocytes; 25 μM β-amyloid 1-40 and 50 ng/ml NGF
  percent of live cells (spread): 96±1.4%
melanocytes; NGF added, within 3-5 days
  cell yields of β-amyloid-supplemented melanocytes: enhanced cell yields
melanocytes; [7]
  Bcl-2 levels: increases Bcl-2 levels
  β-amyloid-induced Bax upregulation: decreases the β-amyloid-induced Bax upregulation
p75^NTR [1]; with 50 ng/ml NGF
  appearance of cells within 24 hours after irradiation: appear healthy
p75^NTR [3]
  higher receptor affinity than β-amyloid: 2-3 fold
p75^NTR [4]
  maximum inhibition of 125I labeled β-amyloid binding: 38%

## mutant NGF: NGF in which lysine (K) at position 34 is replaced by alanine (A)
p75^NTR [5]
  lower affinity of binding to p75NTR: 50%
